{"source": "patent US20070207204A1", "about": "“Dosage Form for Time-Varying Patterns of Drug Delivery” (ALZA CORPORATION, priority 2001, published 2007)", "data": [{"test": "Osmotic pressure of saturated solutions of osmotically effective compounds and mixtures (vapor pressure osmometer)", "format": "physicochemical", "details": "saturated solution in water at 37° C.; Model 302B Vapor Pressure Osmometer", "description": "The term “osmagent”, as used herein, includes osmotically effective solutes, osmotically effective compounds, and osmotic agents. […] Osmotically effective compounds useful for the present purpose include magnesium sulfate, magnesium chloride, sodium chloride, lithium chloride, potassium sulfate, sodium carbonate, sodium sulfite, lithium sulfate, potassium chloride, calcium bicarbonate, sodium sulfate, calcium sulfate, potassium acid phosphate, calcium lactate, d-mannitol, urea, inositol, magnesium succinate, tartaric acid, carbohydrates such as raffinose, sucrose, glucose, maltodextrins, α-d-lactose monohydrate, and mixtures thereof. The osmotically effective compound in layer 18 can be in any physical form such as particle, crystal, pellet, tablet, strip, ground, pulverized, film, or granule. The osmotic pressure of saturated solutions of various osmotically effective compounds and for mixtures of osmotic compounds at 37° C. in water, is listed in Table 1. The osmotic pressure can be measured by a commercially available osmometer that measures the vapor pressure difference between pure water and the solution to be analyzed. According to standard thermodynamic principles, the vapor pressure difference is converted into osmotic pressure. In Table 1, osmotic pressures of from 20 atm to 500 atm are set forth. However, the invention includes the use of lower osmotic pressures, and higher osmotic pressures than from 20 atm to 500 atm. The osmometer used for the present measurements is Model 302B, Vapor Pressure Osmometer, manufactured by the Hewlett Packard Co., Avondale, Pa.", "units": {"OSMOTIC PRESSURE (atm)": "atm"}, "values": [{"smiles": "O=C(CO)[C@@H](O)[C@H](O)[C@H](O)CO", "note": "[Fructose]", "OSMOTIC PRESSURE (atm)": 355}, {"smiles": "OC[C@@H](O)[C@@H](O)[C@H](O)[C@H](O)CO", "note": "[Mannitol]", "OSMOTIC PRESSURE (atm)": 38}, {"smiles": "[Cl-].[K+]", "note": "[Potassium Chloride]", "OSMOTIC PRESSURE (atm)": 245}, {"smiles": "O=S(=O)([O-])[O-].[K+].[K+]", "note": "[Potassium Sulfate]", "OSMOTIC PRESSURE (atm)": 39}, {"smiles": "[Cl-].[Na+]", "note": "[Sodium Chloride]", "OSMOTIC PRESSURE (atm)": 356}, {"smiles": "O.O.O.O.O.O.O.O=P([O-])([O-])O.[Na+].[Na+]", "note": "[Sodium Phosphate Dibasic-7H20]", "OSMOTIC PRESSURE (atm)": 31}, {"smiles": "O.O.O.O.O.O.O.O.O.O.O.O.O=P([O-])([O-])O.[Na+].[Na+]", "note": "[Sodium Phosphate Dibasic-12H20]", "OSMOTIC PRESSURE (atm)": 31}, {"smiles": "O=P([O-])([O-])O.[Na+].[Na+]", "note": "[Sodium Phosphate Dibasic-Anhydrous]", "OSMOTIC PRESSURE (atm)": 29}, {"smiles": "O.O=P([O-])(O)O.[Na+]", "note": "[Sodium Phosphate Monobasic-H20]", "OSMOTIC PRESSURE (atm)": 28}, {"smiles": "O.O.O.O.O.O.O.O.O.O.O.O.O=P([O-])([O-])[O-].[Na+].[Na+].[Na+]", "note": "[Sodium Phosphate Tribasic-12H20]", "OSMOTIC PRESSURE (atm)": 36}, {"smiles": "OC[C@H]1O[C@@](CO)(O[C@H]2O[C@H](CO)[C@@H](O)[C@H](O)[C@H]2O)[C@@H](O)[C@@H]1O", "note": "[Sucrose]", "OSMOTIC PRESSURE (atm)": 150}]}]}
